From ChEMBL document CHEMBL5038592, “Discovery of MK-8153, a Potent and Selective ROMK Inhibitor and Novel Diuretic/Natriuretic” (J Med Chem, 2021)

Legend:
[1] = molecular target: T1, ATP-sensitive inward rectifier potassium channel 1 (Homo sapiens, UniProt P48048); test: Inhibition of human ROMK expressed in CHO cells by whole cell voltage clamp electrophysiology assay; type: cell-based
T1 sequence (P48048 whole entry): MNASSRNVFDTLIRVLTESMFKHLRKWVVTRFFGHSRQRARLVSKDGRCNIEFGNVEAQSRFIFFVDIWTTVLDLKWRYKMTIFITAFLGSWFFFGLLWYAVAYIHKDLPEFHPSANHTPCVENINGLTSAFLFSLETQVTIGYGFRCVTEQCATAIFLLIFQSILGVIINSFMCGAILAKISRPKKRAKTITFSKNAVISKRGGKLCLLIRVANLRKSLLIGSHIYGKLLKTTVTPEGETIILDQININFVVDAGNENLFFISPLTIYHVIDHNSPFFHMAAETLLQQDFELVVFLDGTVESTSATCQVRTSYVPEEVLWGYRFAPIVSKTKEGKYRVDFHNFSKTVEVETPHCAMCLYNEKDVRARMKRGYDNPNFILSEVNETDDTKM

[2] = molecular target: Voltage-gated inwardly rectifying potassium channel KCNH2 (Homo sapiens, UniProt Q12809); test: Inhibition of human ERG expressed in HEK-293 cells by voltage clamp electrophysiology assay
[3] = Apparent permeability in pig LLC-PK1 cells
[4] = species: Homo sapiens; test: Selectivity index, ratio of IC50 for human ERG to IC50 for human ROMK

Sequence of Voltage-gated inwardly rectifying potassium channel KCNH2 (Q12809 whole entry): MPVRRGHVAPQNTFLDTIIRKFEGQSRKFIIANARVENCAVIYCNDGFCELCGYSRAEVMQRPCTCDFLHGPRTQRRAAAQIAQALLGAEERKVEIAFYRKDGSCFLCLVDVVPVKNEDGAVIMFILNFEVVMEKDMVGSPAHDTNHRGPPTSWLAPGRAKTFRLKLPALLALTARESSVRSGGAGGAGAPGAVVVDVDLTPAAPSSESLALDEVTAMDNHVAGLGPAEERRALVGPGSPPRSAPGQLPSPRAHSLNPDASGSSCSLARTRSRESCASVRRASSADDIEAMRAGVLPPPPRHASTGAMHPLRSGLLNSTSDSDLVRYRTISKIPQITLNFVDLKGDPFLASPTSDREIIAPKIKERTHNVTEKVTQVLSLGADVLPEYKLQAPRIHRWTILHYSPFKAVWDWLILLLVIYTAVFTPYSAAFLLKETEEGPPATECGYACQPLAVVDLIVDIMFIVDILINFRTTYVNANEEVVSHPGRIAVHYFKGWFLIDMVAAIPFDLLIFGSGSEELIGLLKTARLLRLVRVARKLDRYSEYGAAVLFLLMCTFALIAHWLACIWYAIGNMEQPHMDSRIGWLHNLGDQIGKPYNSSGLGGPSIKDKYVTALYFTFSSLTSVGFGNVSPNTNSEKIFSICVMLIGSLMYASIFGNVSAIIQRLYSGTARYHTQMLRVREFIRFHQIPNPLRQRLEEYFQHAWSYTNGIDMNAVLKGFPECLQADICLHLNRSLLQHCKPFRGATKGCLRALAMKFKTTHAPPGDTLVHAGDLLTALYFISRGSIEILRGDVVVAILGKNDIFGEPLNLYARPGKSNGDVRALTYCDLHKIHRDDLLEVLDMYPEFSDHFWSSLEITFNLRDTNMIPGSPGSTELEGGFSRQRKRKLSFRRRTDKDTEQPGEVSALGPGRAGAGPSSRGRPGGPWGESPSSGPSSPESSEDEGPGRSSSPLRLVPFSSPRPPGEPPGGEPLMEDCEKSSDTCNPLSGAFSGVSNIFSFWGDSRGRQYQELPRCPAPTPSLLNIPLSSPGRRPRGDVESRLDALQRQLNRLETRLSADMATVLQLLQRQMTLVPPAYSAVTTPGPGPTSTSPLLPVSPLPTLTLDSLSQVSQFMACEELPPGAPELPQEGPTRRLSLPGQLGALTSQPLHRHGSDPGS

Row | Structure (SMILES) | IC50 [1] | IC50 [2] | Papp [3] | Ratio [4]
1 | Cc1c([C@@H](O)CN2CCC3(CC2)CCN(C2=CC(=O)OC2C)C3=O)ccc2c1COC2=O (some centres not stated) | 24 nM | 19000 nM | 19 ×10⁻⁶ cm/s | 
2 | Cc1c([C@@H](O)CN2CCC3(CC2)CCN(C2=CC(=O)CC2)C3=O)ccc2c1COC2=O | 11 nM |  |  | 
3 | Cc1c([C@@H](O)CN2CCC3(CC2)CCN(C2=CC(=O)OC2)C3)ccc2c1COC2=O | 26 nM | 90000 nM | 27 ×10⁻⁶ cm/s | 3400
4 | CCC1=C(N2CCC3(CCN(C[C@H](O)c4ccc5c(c4C)COC5=O)CC3)C2=O)COC1=O | 18 nM |  | 23 ×10⁻⁶ cm/s | 
5 | Cc1c([C@@H](O)CN2CCN(C[C@H](O)c3ccc4c(c3C)COC4=O)CC2)ccc2c1COC2=O [MK-7145] |  | 22000 nM | 20 ×10⁻⁶ cm/s | 
6 | CC1=C(N2CCC3(CCN(C[C@H](O)c4ccc5c(c4C)COC5=O)CC3)C2=O)CCC1=O | 15 nM |  | 22 ×10⁻⁶ cm/s | 
7 | CC1=C(N2CCC3(CCN(C[C@H](O)c4ccc5c(c4C)COC5=O)CC3)C2=O)C(C)OC1=O (some centres not stated) | 98 nM | 20000 nM | 20 ×10⁻⁶ cm/s | 
8 | CC1=C(N2C(=O)C3(CCN(C[C@H](O)c4ccc5c(c4C)COC5=O)CC3)CC2C)COC1=O (some centres not stated) | 18 nM | 18000 nM | 18 ×10⁻⁶ cm/s | 
9 | Cc1c([C@@H](O)CN2CCC3(CC2)CC(=O)N(C2=CC(=O)OC2)C3)ccc2c1COC2=O | 45 nM | 90000 nM | 7.9 ×10⁻⁶ cm/s | 2000
10 | Cc1c([C@@H](O)CN2CCC3(CC2)CCN(C2=C(Cl)C(=O)OC2)C3=O)ccc2c1COC2=O | 6 nM |  | 33 ×10⁻⁶ cm/s | 
11 | Cc1c([C@@H](O)CN2CCC3(CC2)CCN(C2=CC(=O)OC2)C3=O)ccc2c1COC2=O |  |  | 11 ×10⁻⁶ cm/s | 
